Reference: patent US20070078179A1, “Use of a fibrate and orlistat for the treatment of obesity” (Foumier Laboratories Ireland Limited, priority 2003, published 2007)

Assay: Effect of fenofibrate and orlistat co-administration on body weight of mice fed a high-fat diet
Format: in vivo
Conditions: for Gain: body weight gain over 6 weeks, * p<0.05 relative to Group 5 (standard diet); for Gain / Body weight after 6 weeks: mice fed with high-fat diet, drug p.o. mixed with the diet (fenofibrate 25 mg/kg, orlistat 2.5 mg/kg), mean±sem; for Body weight after 6 weeks: in g (unit assumed)
Description: This study was designed to evaluate the effects of using a combination of fenofibrate and orlistat on body weight. Method Animals: Mice weighing approximately 20 g were received from CERJ. They were put into individual cages in a temperature-, humidity- and light-controlled room (21-23° C., 12-12 h light-dark cycle). […] After acclimatization, they were randomized into groups of 20 animals, based on body weight. The experimental groups were: • a Group 1: mice fed with high-fat diet • Group 2: mice fed with high-fat diet, treated with fenofibrate 25 mg/kg p.o., mixed with the diet • Group 3: mice fed with high-fat diet, treated with orlistat 2.5 mg/kg p.o., mixed with the diet • Group 4: mice fed with high-fat diet, treated with fenofibrate 25 mg/kg p.o. and orlistat 2.5 mg/kg p.o., mixed with the diet • Group 5: mice fed with standard diet Statistics: All data are presented as mean±sem. Results were subjected to Dunnett's t test. A p<0.05 was considered significant.

SMILES	Difference from mice with a standard diet (normalization of the body weight) (after 6 weeks of treatment, mice with a high-fat diet compared with mice with a standard diet, Dunnett's t test)	Gain	Body weight after 6 weeks
CCCCCCCCCCC[C@@H](C[C@@H]1OC(=O)[C@H]1CCCCCC)OC(=O)[C@H](CC(C)C)NC=O (relative stereo) [orlistat, [2S-[2α(R*),3β]]-N-formyl-L-leucine 1-[(3-hexyl-4-oxo-2-oxetanyl)methyl]dodecyl ester]	significant difference	7.59 ± 0.28*	27.12 ± 0.39
CC(C)OC(=O)C(C)(C)Oc1ccc(C(=O)c2ccc(Cl)cc2)cc1 [fenofibrate]		7.60 ± 0.43*	27.25 ± 0.47
